From ChEMBL document CHEMBL1136380, “Synthesis of beta-lactamase activated nitric oxide donors” (Bioorg Med Chem Lett, 2003)

Columns and labels:
[1] = NO releasing ability of the measured through the formation of nitrite (NO2) in solution, following incubation in the absence of beta-lactamase (Compound+penicillinase)
[2] = NO releasing ability of the measured through the formation of nitrite (NO2) in solution, following incubation in the presence of beta-lactamase
[3] = The NO releasing ability measured through the formation of nitrite (NO2) in solution, following incubation of the compound

| Concentration [1] | Concentration [2] | Concentration [3] | Compound |
| --- | --- | --- | --- |
| 10.2 µM | 2.2 µM |  | O=C(Cc1cccs1)N[C@@H]1C(=O)N2C(C(=O)O)=C(COC(=O)/N=c3/c[n+](N4CCOCC4)[n-]o3)CS[C@H]12 |
|  |  | 15.5 µM | [NH-]c1c[n+](N2CCOCC2)no1 |
